Experimental data reported in patent publication US11739098B2 (BRISTOL-MYERS SQUIBB COMPANY, priority 2017, dated 2023).

Assays:
Assay type in all cases: cell-based
human TLR7 = target: T1, human TLR7 (Homo sapiens, UniProt Q9NYK1); test: TLR7 inhibition reporter assay (HEK-Blue cells, SEAP reporter, gardiquimod stimulation); settings: HEK-Blue cells overexpressing human TLR7, SEAP reporter, gardiquimod 7.5 μM
T1 construct: host or cells: HEK-Blue cells (HEK293-derived reporter line)
T1 sequence (Q9NYK1 27-1049): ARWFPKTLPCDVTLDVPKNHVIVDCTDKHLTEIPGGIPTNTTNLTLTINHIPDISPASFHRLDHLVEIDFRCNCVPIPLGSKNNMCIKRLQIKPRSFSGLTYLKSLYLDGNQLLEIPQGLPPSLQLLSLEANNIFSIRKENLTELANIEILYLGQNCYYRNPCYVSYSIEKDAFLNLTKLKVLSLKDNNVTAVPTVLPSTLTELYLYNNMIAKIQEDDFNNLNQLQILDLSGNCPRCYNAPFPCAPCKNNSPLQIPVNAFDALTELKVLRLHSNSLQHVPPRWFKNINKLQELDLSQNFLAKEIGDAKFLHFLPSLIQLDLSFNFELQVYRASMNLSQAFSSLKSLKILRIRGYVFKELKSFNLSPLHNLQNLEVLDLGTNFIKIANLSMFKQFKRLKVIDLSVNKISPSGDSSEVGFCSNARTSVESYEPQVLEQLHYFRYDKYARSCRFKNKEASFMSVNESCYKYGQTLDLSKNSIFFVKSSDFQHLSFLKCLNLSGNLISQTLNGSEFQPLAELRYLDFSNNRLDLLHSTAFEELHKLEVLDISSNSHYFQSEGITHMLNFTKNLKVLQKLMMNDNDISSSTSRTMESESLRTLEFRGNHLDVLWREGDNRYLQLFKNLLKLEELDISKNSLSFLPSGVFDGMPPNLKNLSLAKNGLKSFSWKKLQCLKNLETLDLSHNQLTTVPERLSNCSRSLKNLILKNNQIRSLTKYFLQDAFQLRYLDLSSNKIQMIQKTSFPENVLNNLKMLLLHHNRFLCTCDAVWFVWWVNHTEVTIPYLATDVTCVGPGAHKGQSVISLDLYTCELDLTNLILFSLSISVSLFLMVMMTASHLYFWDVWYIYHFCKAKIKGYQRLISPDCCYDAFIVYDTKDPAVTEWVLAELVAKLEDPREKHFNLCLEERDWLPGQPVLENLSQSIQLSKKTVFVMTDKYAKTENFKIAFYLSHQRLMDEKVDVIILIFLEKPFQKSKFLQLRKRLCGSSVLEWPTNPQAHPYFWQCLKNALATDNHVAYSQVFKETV
Procedure, shortened: (§1)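 HEK-Blue cells overexpressing human TLR7, TLR8 or TLR9 (NF-κB/AP-1-driven SEAP) pre-treated 30 min at room temperature with compound (0.05 nM–50 μM), then stimulated with gardiquimod 7.5 μM (TLR7), R848 15.9 μM (TLR8) or ODN2006 5 nM (TLR9). SEAP read colorimetrically after 22 h at 37 °C; % inhibition calculated.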

human TLR9 = target: T2, human TLR9 (Homo sapiens, UniProt Q9NR96); test: TLR9 inhibition reporter assay (HEK-Blue cells, SEAP reporter, ODN2006 stimulation); settings: HEK-Blue cells overexpressing human TLR9, SEAP reporter, ODN2006 5 nM
T2 construct: host or cells: HEK-Blue cells (HEK293-derived reporter line)
T2 sequence (Q9NR96 26-1032): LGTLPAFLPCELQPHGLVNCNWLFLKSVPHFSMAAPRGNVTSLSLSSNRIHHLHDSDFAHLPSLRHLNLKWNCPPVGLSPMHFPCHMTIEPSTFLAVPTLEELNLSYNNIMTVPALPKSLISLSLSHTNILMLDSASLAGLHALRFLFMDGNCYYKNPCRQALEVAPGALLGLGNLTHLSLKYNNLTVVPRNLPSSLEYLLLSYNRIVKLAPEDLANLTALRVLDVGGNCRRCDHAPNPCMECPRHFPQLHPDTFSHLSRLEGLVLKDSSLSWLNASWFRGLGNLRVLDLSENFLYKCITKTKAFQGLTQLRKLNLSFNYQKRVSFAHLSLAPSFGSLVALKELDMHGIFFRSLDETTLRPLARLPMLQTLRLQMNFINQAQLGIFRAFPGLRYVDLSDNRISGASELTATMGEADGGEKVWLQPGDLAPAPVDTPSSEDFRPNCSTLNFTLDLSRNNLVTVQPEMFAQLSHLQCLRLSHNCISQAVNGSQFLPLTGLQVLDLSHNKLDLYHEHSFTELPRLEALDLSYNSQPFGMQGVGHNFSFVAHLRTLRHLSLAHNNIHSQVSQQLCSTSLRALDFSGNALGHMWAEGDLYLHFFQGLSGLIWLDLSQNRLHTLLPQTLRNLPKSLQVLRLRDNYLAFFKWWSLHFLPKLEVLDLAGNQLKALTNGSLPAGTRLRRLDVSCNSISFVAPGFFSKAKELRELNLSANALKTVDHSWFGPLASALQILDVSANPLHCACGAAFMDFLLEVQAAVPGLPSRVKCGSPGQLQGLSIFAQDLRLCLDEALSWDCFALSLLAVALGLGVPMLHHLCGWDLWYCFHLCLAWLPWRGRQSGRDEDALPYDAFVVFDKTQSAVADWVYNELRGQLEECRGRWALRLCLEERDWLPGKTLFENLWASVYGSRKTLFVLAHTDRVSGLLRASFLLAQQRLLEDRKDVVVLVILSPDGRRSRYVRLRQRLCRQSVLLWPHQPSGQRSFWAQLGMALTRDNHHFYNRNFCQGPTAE
Procedure, shortened: as §1

human TLR8 = target: T3, human TLR8 (Homo sapiens, UniProt Q9NR97); test: TLR8 inhibition reporter assay (HEK-Blue cells, SEAP reporter, R848 stimulation); settings: HEK-Blue cells overexpressing human TLR8, SEAP reporter, R848 15.9 μM
T3 construct: host or cells: HEK-Blue cells (HEK293-derived reporter line)
T3 sequence (Q9NR97 27-1041): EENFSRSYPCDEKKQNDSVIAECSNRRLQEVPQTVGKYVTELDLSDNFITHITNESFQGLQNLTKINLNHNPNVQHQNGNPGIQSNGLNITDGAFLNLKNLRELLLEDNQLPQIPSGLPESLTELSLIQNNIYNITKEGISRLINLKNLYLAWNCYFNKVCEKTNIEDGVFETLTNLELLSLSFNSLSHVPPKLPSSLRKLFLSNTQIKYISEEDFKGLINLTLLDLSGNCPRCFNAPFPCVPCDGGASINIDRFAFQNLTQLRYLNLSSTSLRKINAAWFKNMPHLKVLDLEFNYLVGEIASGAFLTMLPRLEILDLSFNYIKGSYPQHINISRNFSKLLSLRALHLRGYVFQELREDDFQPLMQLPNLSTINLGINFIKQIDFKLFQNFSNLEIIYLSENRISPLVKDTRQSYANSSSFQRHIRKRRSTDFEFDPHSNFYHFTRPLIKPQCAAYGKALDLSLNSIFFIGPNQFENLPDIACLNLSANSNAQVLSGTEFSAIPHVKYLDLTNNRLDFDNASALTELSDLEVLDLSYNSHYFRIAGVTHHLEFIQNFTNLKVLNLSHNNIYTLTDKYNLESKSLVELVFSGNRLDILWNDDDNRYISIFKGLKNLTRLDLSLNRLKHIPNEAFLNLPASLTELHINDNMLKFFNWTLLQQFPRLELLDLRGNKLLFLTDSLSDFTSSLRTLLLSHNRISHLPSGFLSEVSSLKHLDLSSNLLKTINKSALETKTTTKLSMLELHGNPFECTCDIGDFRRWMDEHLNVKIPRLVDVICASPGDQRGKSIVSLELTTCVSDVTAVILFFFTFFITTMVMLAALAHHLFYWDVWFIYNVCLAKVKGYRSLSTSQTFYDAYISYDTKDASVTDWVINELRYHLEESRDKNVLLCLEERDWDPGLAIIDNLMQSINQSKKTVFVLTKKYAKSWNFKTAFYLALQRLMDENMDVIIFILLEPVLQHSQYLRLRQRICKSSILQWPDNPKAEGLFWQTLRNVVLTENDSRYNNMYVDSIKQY
Procedure, shortened: as §1

| Compound | IC50 (human TLR7) [nM] | IC50 (human TLR9) [nM] | IC50 (human TLR8) [nM] |
| --- | --- | --- | --- |
| Cc1cc(-c2[nH]c3ccc(C4CCNCC4)cc3c2C(C)C)cc2c1oc(=O)n2C [Example 90, 5-(3-isopropyl-5-(piperidin-4-yl)-1H-indol-2-yl)-3,7-dimethylbenzo[d]oxazol-2(3H)-one] | < 100 | 1000 to 50000 | 100 to 1000 |
| CC(=O)N1CCC(C(=O)N2CCC(c3ccc4[nH]c(-c5ccnc6[nH]ncc56)c(C(C)C)c4c3)CC2)CC1 [Example 646, 1-(4-(4-(3-isopropyl-2-(1H-pyrazolo[3,4-b]pyridin-4-yl)-1H-indol-5-yl)piperidine-1-carbonyl)piperidin-1-yl)ethan-1-one] | 100 to 1000 | 1000 to 50000 | < 100 |
| CC(C)c1c(-c2ccn3nccc3n2)[nH]c2ccc(C3CCN(CC(=O)N(C)C)CC3)cc12 [Example 425, 2-(4-(3-isopropyl-2-(pyrazolo[1,5-a]pyrimidin-5-yl)-1H-indol-5-yl)piperidin-1-yl)-N,N-dimethylacetamide] | 100 to 1000 | 1000 to 50000 | 100 to 1000 |
| Cc1cc(-c2[nH]c3ccc(C4CCNCC4)cc3c2C(C)C)cn2ccnc12 [Example 112, 6-(3-isopropyl-5-(piperidin-4-yl)-1H-indol-2-yl)-8-methylimidazo[1,2-a]pyridine] | < 100 | 100 to 1000 | < 100 |
| CNCCN1CCC(c2ccc3[nH]c(-c4ccc5scnc5c4)c(C)c3c2)CC1 [compound 659] | 1000 to 50000 | 100 to 1000 | > 3130 |
| Cc1c(-c2ccnc3[nH]nc(C)c23)[nH]c2ccc(C3CCNCC3)cc12 [Example 218, 3-methyl-4-(3-methyl-5-(piperidin-4-yl)-1H-indol-2-yl)-1H-pyrazolo[3,4-b]pyridine] | < 100 | 100 to 1000 | < 100 |
| CC(C)c1c(-c2ccc3cnnn3c2)[nH]c2ccc(C3CCN(Cc4ncn(C)n4)CC3)cc12 [Example 879, 6-(3-isopropyl-5-(1-((1-methyl-1H-1,2,4-triazol-3-yl)methyl)piperidin-4-yl)-1H-indol-2-yl)-[1,2,3]triazolo[1,5-a]pyridine] | 100 to 1000 | 1000 to 50000 | 100 to 1000 |
| CCc1c(-c2ccnc3[nH]cc(C(C)C)c23)[nH]c2ccc(C3CCNCC3)cc12 [Example 221, 4-(3-ethyl-5-(piperidin-4-yl)-1H-indol-2-yl)-3-isopropyl-1H-pyrrolo[2,3-b]pyridine] | 100 to 1000 | 100 to 1000 | 1000 to 50000 |
| CNCCN1CCC(c2ccc3[nH]c(-c4ccc5ncccc5c4)c(C)c3c2)CC1 [Example 666, N-methyl-2-(4-(3-methyl-2-(quinolin-6-yl)-1H-indol-5-yl)piperidin-1-yl)ethan-1-amine] | 1000 to 50000 | 100 to 1000 | > 3130 |
| CCc1c(-c2ccn3ccnc3c2)[nH]c2ccc(C3CCNCC3)cc12 [Example 202, 7-(3-ethyl-5-(piperidin-4-yl)-1H-indol-2-yl)imidazo[1,2-a]pyridine] | 1000 to 50000 | 100 to 1000 | 1000 to 50000 |
| CC(C)c1c(-c2ccc3[nH]ncc3c2)[nH]c2ccc(C3CCNCC3)cc12 [Example 169, 5-(3-isopropyl-5-(piperidin-4-yl)-1H-indol-2-yl)-1H-indazole] | 100 to 1000 | 1000 to 50000 | 1000 to 50000 |
| COc1cc2[nH]c(-c3ccnc4[nH]ncc34)c(C(C)C)c2cc1C1CCNCC1 [Example 255, 4-(3-isopropyl-6-methoxy-5-(piperidin-4-yl)-1H-indol-2-yl)-1H-pyrazolo[3,4-b]pyridine] | < 100 | 1000 to 50000 | 100 to 1000 |
| CC(C)c1c(-c2ccnc3[nH]ncc23)[nH]c2ccc(C3CCN(Cc4cnccn4)CC3)cc12 [Example 903, 4-(3-isopropyl-5-(1-(pyrazin-2-ylmethyl)piperidin-4-yl)-1H-indol-2-yl)-1H-pyrazolo[3,4-b]pyridine] | < 100 | 1000 to 50000 | < 100 |
| Cc1cc2cc(-c3[nH]c4ccc(C5CCNCC5)cc4c3C(C)C)cc(CC(C)C)n2n1 [Example 144, 7-isobutyl-5-(3-isopropyl-5-(piperidin-4-yl)-1H-indol-2-yl)-2-methylpyrazolo[1,5-a]pyridine] | > 3130 | 1000 to 50000 | > 3130 |
| COc1cc(-c2[nH]c3ccc(C4CCN(CC(=O)N(C)C)CC4)cc3c2C(C)C)cc2nc(C)cn12 [Example 334, 2-(4-(3-isopropyl-2-(5-methoxy-2-methylimidazo[1,2-a]pyridin-7-yl)-1H-indol-5-yl)piperidin-1-yl)-N,N-dimethylacetamide] | 100 to 1000 | 100 to 1000 | 100 to 1000 |
| Cc1cn2c(C)c(-c3[nH]c4ccc(C5CCNCC5)cc4c3C(C)C)ccc2n1 [Example 123, 6-(3-isopropyl-5-(piperidin-4-yl)-1H-indol-2-yl)-2,5-dimethylimidazo[1,2-a]pyridine] | < 100 | 100 to 1000 | 100 to 1000 |
